≈ marks a conversion by molar mass, not a printed value. Like-named read-outs stand apart in the source and are kept apart here.
Tests used:
HIV-1 (IIIB isolate) [1] = conditions: cited from earlier work
HIV-1 (IIIB isolate) [2] = assay: microbe, parasite or virus in culture; type: cell-based; conditions: for Therapeutic Index / therapeutic index (TI): 5760 min
Method: (§1) The H9 T cell line was maintained in continuous culture with complete medium (RPMI and 10% fetal calf serum) at 5% CO2 and 37° C. and was used in experiments only when in log phase of growth. The cells were incubated with HIV-1 (IIIB isolate, TCID50 10^4 IU/mL, at a multiplicity of infection of 0.1-0.01 IU/cell) for 1 hour at 37° C. and 5% CO2. The cells then were washed thoroughly to remove unabsorbed virions and resuspended at 4×10^5 cells/mL in complete medium. Aliquots (1 mL) were placed in wells of 24-well culture plates containing an equal volume of test compound (diluted in the culture medium). After a four day incubation at 37° C., cell density of uninfected cultures was determined by counting cells in a Coulter counter to assess toxicity of the test compound. A p24 antigen ELISA assay was used to determine the level of virus released in the medium of the HIV-infected cultures. The p24 antigen assay uses an HIV-1 anti-p24 specific monoclonal antibody as the capture antibody coated on 96 well plates. Following a sample incubation period, rabbit serum containing antibodies for HIV-1 p24 is used to tag any p24 "captured" onto the microtiter well surface. […] The cut-off for the p24 ELISA assay is 12.5 pg/mL. P24 in the culture medium was quantitated against a standard curve containing known amounts of p24. The effective (EC50) and inhibitory concentrations (for anti-HIV activity and cytotoxicity, respectively) were determined.

H9 T cell line = assay: Toxicity to uninfected H9 cells (cell count); type: cell-based
Method: as §1

[3] = test system: chronically HIV-1 infected T cell line, ACH-2; assay: Virus expression in chronically HIV-1 infected T cell line ACH-2 (p24 ELISA); type: cell-based; conditions: 72 hours; for induction of virus expression: cultured alone; for alteration in the level of virus expression: in presence of PMA
Method: Data obtained by using chronically HIV-1 infected cell lines that are cultured with a test drug can give a sense of how these compounds may function in vivo if given to a latently HIV- infected individual. Therefore, compounds 4 and 5 were separately added for 72 hours to the chronically HIV-1 infected T cell line, ACH-2, and to the chronically HIV-1 infected promonocytic cell line, U1.
(§2) HIV-1 chronically infected T cell line, ACH-2, ^15 and HIV-1 chronically infected promonocytic cell line, U1 ^16 were continuously maintained in RPMI1640 with 10% fetal calf serum (FCS). For experiments, the cell lines were only used in log-phase of growth. Cells (1×10^6 cells/well) and either various concentrations of 4,5, AZT or media alone were added to 24-well plates in the presence or absence of PMA (10^-8 M). After 72 hours at 37° C. and 5% CO2, an aliquot of the cell-free supernatants was collected and analyzed for p24 antigen by ELISA.

[4] = molecular target: T1, HIV reverse transcriptase associated RNase H (HIV-1 M:B_HXB2R, UniProt P04585); assay: HIV reverse transcriptase associated RNase H activity; type: biochemical
T1 construct: cut from Gag-Pol polyprotein

[5] = molecular target: T2, HIV-1 reverse transcriptase (Human immunodeficiency virus type 1 group M subtype B, UniProt P04585); assay: HIV-1 reverse transcriptase, RNA-dependent DNA polymerase associated activity; type: biochemical; set-up: HIV-1 reverse transcriptase was purified; made in house; host or cells: Escherichia coli JM 109 containing pKRT 2 (plasmid provided by W. C. Summers, Yale University); conditions: for HIV-1 reverse transcriptase inhibitory activity: template-primer dependent, result in words; for IC50: mean ± standard deviation of three
Method: (§3) HIV-1 reverse transcriptase was purified using Escherichia coli JM 109 containing pKRT 2 kindly provided by W. C. Summers (Yale University).
(§4) Enzyme Assay. All reactions were developed in a total volume of 50 μl containing 50 mMTris HCl pH 7.8, 2 mM MgCl2, 100 μg/mL nuclease-free BSA, 1 mM dithiothreitol, 0.5 O.D.260 unit/mL of template-primer, and 330 nM of [^3 H]dNTP according to Cheng et al.

[6] = molecular target: T2, HIV-1 reverse transcriptase; assay: HIV-1 reverse transcriptase, DNA-dependent DNA polymerase associated activity; type: biochemical; set-up: HIV-1 reverse transcriptase was purified; made in house; host or cells: Escherichia coli JM 109 containing pKRT 2 (plasmid provided by W. C. Summers, Yale University); conditions: for inhibitory effect against RT-associated DNA polymerase activity: under certain conditions
Method: as §3, §4

[7] = test system: chronically HIV-1 infected promonocytic cell line, U1; assay: Virus expression in chronically HIV-1 infected promonocytic U1 cells (p24 ELISA); type: cell-based; conditions: for induction of virus expression / alteration in the level of virus expression: 72 hours; for induction of virus expression: cultured alone; for alteration in the level of virus expression: in presence of PMA
Method: Therefore, compounds 4 and 5 were separately added for 72 hours to the chronically HIV-1 infected T cell line, ACH-2, and to the chronically HIV-1 infected promonocytic cell line, U1.
as §2

[8] = molecular target: T2, HIV-1 reverse transcriptase; conditions: more with Poly(rC)-olig(dG) than with Poly(rA)-olig(dT); cited from earlier work
[9] = Human immunodeficiency virus 1, H9, text, acutely infected H9 cells, read-out: EC50 (anti-HIV activity)
[10] = Human immunodeficiency virus 1, Lymphocyte, Table I, acutely infected H9 lymphocytes, read-out: EC50
[11] = Human immunodeficiency virus 1, Lymphocyte, Table IA, acutely infected H9 lymphocytes, read-out: EC50
[12] = Poly(rA)-poly(dT) as substrate, or Mg^+2 as divalent cation
[13] = Poly(rG)-poly(dC) as substrate, Mn^+2 (0.4 mM)
[14] = Homo sapiens, H9, Table I, cytotoxicity, uninfected H9 cells, read-out: IC50
[15] = template-primer poly(rA)-olig(dT)10
[16] = template-primer poly(rC)-olig(dG)12-18
[17] = Poly(dA)-olig(dT) as template primer
[18] = Table II, template-primer printed poly(rA)-olig(dT)^10, mean ± standard deviation of three

For `COc1c(OCc2ccccc2)c(OCc2ccccc2)cc(CO)c1-c1c(CO)cc(OCc2ccccc2)c(OCc2ccccc2)c1OC` [Compound 2, 4,4',5,5'-tetrakis(benzyloxy)-6,6'-dimethoxy-2,2'-dihydroxymethyl biphenyl], the anti-HIV activity (HIV-1 (IIIB isolate) [1]; parent compound, comparable to that of DDB) is given as “does possess anti-HIV activity”.
In the case of `COC(=O)c1cc(OC)c2c(c1-c1c(C(=O)OC)cc(OC)c3c1OCO3)OCO2` [Compound 3, 4,4'-dimethoxy-5,6,5'6'-dimethylenedioxy-2,2'-dimethoxycarbonyl biphenyl, reference compound], the EC50 (HIV-1 (IIIB isolate) [2]; Human immunodeficiency virus 1, IIIB, Lymphocyte) is reported as 5 µg/mL (≈ 12 µM), the “Therapeutic Index” value (HIV-1 (IIIB isolate) [2]; Table I, IC50/EC50) is reported as greater than 20 and the “Therapeutic Index” value (HIV-1 (IIIB isolate) [2]; Table IA, ratio IC50/EC50) is reported as greater than 20. The IC50 (H9 T cell line; Homo sapiens, H9) was greater than 100 µg/mL, the IC50 (H9 T cell line; T-cell) was greater than 100 µg/mL and the TI (HIV-1 (IIIB isolate) [1]; background section) was greater than 20.
For `COC(=O)c1cc(OC)c2c(c1-c1c3c(c(OC)c(Br)c1C(=O)OC)OCO3)OCO2` [Compound 4, 3-Bromo-4,4'-dimethoxy-5,6,5',6'-bimethylenedioxy-2,2'-dimethoxycarbonyl biphenyl], the “induction of virus expression” value [3] was “no increase in the induction of virus expression”, the “alteration in the level of virus expression” value (from here on “alteration in the level”) [3] was “no alteration in the level of virus expression” and the “therapeutic index (TI)” value (HIV-1 (IIIB isolate) [2]) was 190. The EC50 (HIV-1 (IIIB isolate) [2]; [9]) was 0.52 µg/mL (≈ 1.05 µM), the EC50 (HIV-1 (IIIB isolate) [2]; [10]) was 0.52 µg/mL (≈ 1.05 µM) and the EC50 (HIV-1 (IIIB isolate) [2]; [11]) was 0.52 µg/mL (≈ 1.05 µM). The “Therapeutic Index” value (HIV-1 (IIIB isolate) [2]; Table I, IC50/EC50) was greater than 190, the “Therapeutic Index” value (HIV-1 (IIIB isolate) [2]; Table IA, ratio IC50/EC50) was 190 and the “inhibition of HIV RT associated RNase H activity” value (shortened to “inhibition”) [4, 12] was “no inhibition”. The “inhibition” value [4, 13] was “almost equal potency”, the “inhibition” value ([4]; under certain conditions) was “Potent inhibitory effects” and the IC50 (H9 T cell line; [14]) was greater than 100 µg/mL. For the same compound, the IC50 (H9 T cell line; T-cell, Table IA, concentration that causes a 50% reduction in total cell number) was 100 µg/mL (≈ 201 µM), the “HIV-1 reverse transcriptase inhibitory activity” value [5] was “template-primer HIV-1 reverse transcriptase inhibitory activity” and the IC50 [5, 15] was 4500 ± 1000 nM. The IC50 [5, 16] was 2200 ± 600 nM, the IC50 [6, 17] was 56 nM and the IC50 [6, 18] was 56 ± 3 nM. For the same compound, the “inhibitory effect against RT-associated DNA polymerase activity” value [6] was “Potent inhibitory effects”, the “induction of virus expression” value [7] was “no increase in the induction of virus expression” and the “alteration in the level” value [7] was “no alteration in the level of virus expression”. For the same compound, the p24 ([7]; +Media, 0.0064 μg/mL) was 7 pg/mL, the p24 ([7]; +Media, 0.032 μg/mL) was 10 pg/mL and the p24 ([7]; +Media, 0.16 μg/mL) was 12 pg/mL. The p24 ([7]; +Media, 0.8 μg/mL) was 11 pg/mL, the p24 ([7]; +Media, 4 μg/mL) was 11 pg/mL and the p24 ([7]; +Media, 20 μg/mL) was 22 pg/mL. The p24 ([7]; +PMA, 0.0064 μg/mL) was 8,314 pg/mL, the p24 ([7]; +PMA, 0.032 μg/mL) was 7,200 pg/mL and the p24 ([7]; +PMA, 0.16 μg/mL) was 7,616 pg/mL. The p24 ([7]; +PMA, 0.8 μg/mL) was 8,774 pg/mL, the p24 ([7]; +PMA, 4 μg/mL) was 13,376 pg/mL and the p24 ([7]; +PMA, 20 μg/mL) was 10,746 pg/mL.
In the case of `COC(=O)c1c(Br)c(OC)c2c(c1-c1c3c(c(OC)c(Br)c1C(=O)OC)OCO3)OCO2` [Compound 5, 3,3'-Dibromo-4,4'-dimethoxy-5,6,5'6'-bimethylenedioxy-2,2'-dimethoxycarbonyl biphenyl], the “induction of virus expression” value [3] is reported as “no increase in the induction of virus expression”, the “alteration in the level” value [3] is reported as “no alteration in the level of virus expression” and the “therapeutic index (TI)” value (HIV-1 (IIIB isolate) [2]) is reported as greater than 480. The EC50 (HIV-1 (IIIB isolate) [2]; [9]) was 0.23 µg/mL (≈ 0.399 µM), the EC50 (HIV-1 (IIIB isolate) [2]; [10]) was 0.23 µg/mL (≈ 0.399 µM) and the EC50 (HIV-1 (IIIB isolate) [2]; [11]) was 0.23 µg/mL (≈ 0.399 µM). The “Therapeutic Index” value (HIV-1 (IIIB isolate) [2]; Table I, IC50/EC50) was greater than 480, the “Therapeutic Index” value (HIV-1 (IIIB isolate) [2]; Table IA, ratio IC50/EC50) was greater than 480 and the “inhibition” value [4, 12] was “no inhibition”. For the same compound, the “inhibition” value [4, 13] was “almost equal potency”, the “inhibition” value ([4]; under certain conditions) was “Potent inhibitory effects” and the IC50 (H9 T cell line; [14]) was greater than 100 µg/mL. For the same compound, the IC50 (H9 T cell line; T-cell, Table IA, concentration that causes a 50% reduction in total cell number, read-out: IC50) was greater than 100 µg/mL, the “HIV-1 reverse transcriptase inhibitory activity” value [5] was “template-primer HIV-1 reverse transcriptase inhibitory activity” and the IC50 [5, 15] was 1900 ± 900 nM. It also gave an IC50 [5, 16] of 11000 ± 500 nM, an IC50 [6, 17] of 48 nM and an IC50 [6, 18] of 48 ± 4 nM. The “inhibitory effect against RT-associated DNA polymerase activity” value [6] was “Potent inhibitory effects”, the “induction of virus expression” value [7] was “no increase in the induction of virus expression” and the “alteration in the level” value [7] was “no alteration in the level of virus expression”. For the same compound, the p24 ([7]; +Media, 0.0064 μg/mL) was 17 pg/mL, the p24 ([7]; +Media, 0.032 μg/mL) was 15 pg/mL and the p24 ([7]; +Media, 0.16 μg/mL) was 13 pg/mL. For the same compound, the p24 ([7]; +Media, 0.8 μg/mL) was 14 pg/mL, the p24 ([7]; +Media, 4 μg/mL) was 16 pg/mL and the p24 ([7]; +Media, 20 μg/mL) was 15 pg/mL. For the same compound, the p24 ([7]; +PMA, 0.0064 μg/mL) was 7,590 pg/mL, the p24 ([7]; +PMA, 0.032 μg/mL) was 8,320 pg/mL and the p24 ([7]; +PMA, 0.16 μg/mL) was 9,850 pg/mL. The p24 ([7]; +PMA, 0.8 μg/mL) was 11,482 pg/mL, the p24 ([7]; +PMA, 4 μg/mL) was 10,598 pg/mL and the p24 ([7]; +PMA, 20 μg/mL) was 10,131 pg/mL.
In the case of `Cc1ccnc2c1NC(=O)c1cccnc1N2C1CC1` [Nevarapine], the “inhibitory activity using Poly(rC)-olig(dG) versus Poly(rA)-olig(dT)” value [8] is given as “more inhibitory activity”.
